# Experimental data as given in patent publication US10596145B2, “Heterocyclic flavone derivatives, compositions, and methods related thereto” (Emory University, priority 2012, dated 2020).
# Entries after “also recorded” stand apart in the source; their conditions may differ.
# How the values were obtained:
# [1] = In vivo pharmacokinetic studies in mice; set-up: species or system mouse; conditions: in vivo
# Protocol: For compound a, the standard dosage of 1 mg/kg via i.v. injection and 5 mg/kg for P.O. route was employed. […] Presumably, the dosage is too low for the in vivo PK assay. Thus, the doses of the tested compound o were increased. […] Moreover, the bioavailability is around 2% for compound o at a 10 mg/kg dosage.
# Twenty to thirty grams mice within the age of 6-8 weeks old were administrated with the indicated compounds i. v. or orally. At different time points (3, 10, 30, 60, 120, 240, 360 and 480 min), blood aliquots (300-400 μl) were collected in tubes coated with lithium heparin, mixed gently, then kept on ice and centrifuged at 2500×g for 15 min at 4° C., within 1 h of collection. The plasma was then harvested and kept frozen at −20° C. until further processing. For each time point, 3 mice/group were employed. The plasma samples were analyzed by HPLC.
# [2] = test system: C57BL/6J mice; assay: Locomotor activity assay; assay type: in vivo, mouse; conditions: 2.5 mg/kg oral, 3 weeks
# Protocol: The above drug-treated mice were subjected locomotor activity at day 22. […] Data are presented as mean±SEM.
# Locomotor activity was assessed using an automated system (San Diego Instruments, La Jolla, Calif., USA) with photobeams that recorded ambulations (consecutive beam breaks). Drug-treated mice were placed in the locomotor chambers, and their activity was recorded for 2 h with 30 min interval.
# [3] = biological target: hERG (Homo sapiens, UniProt Q12809); assay: hERG inhibition assay
# Protocol: At 30 μM, the inhibition patterns contained similar trends. To test the possible cardiovascular toxicity, hERG inhibition triggered by compound o was examined.
# [4] = test system: HepG2 cells; assay: In vitro cytotoxicity assay with HepG2 cells; assay type: cell-based; conditions: micronucleus and comet assays
# Protocol: HepG2 cells were treated with various concentrations of flavonoids for 24 h. The drug-treated cells were subjected to trypan blue exclusive assay. Data are presented as mean±SEM. (n=3, ***P<0.0001 vs vehicle).
# In vitro and in vivo ADMET (ADME plus toxicity) of certain compounds were examined. […] Micronuclei formation is an important endpoint in genotoxicity study. […] Next, a Comet assay was performed with 100 μM drug-treated HepG2 cells. As a positive control, etoposide, a topoisomerase inhibitor, which causes DNA strand breaks was used.
# [5] = test system: Akt; assay: Downstream Akt activation in mouse brain (p-Akt immunoblotting, p-Akt 473 ELISA); assay type: in vivo; conditions: 2.5 mg/kg/day oral, 3 weeks
# Protocol: PathScan Phospho-Akt1 (Ser473) Sandwich ELISA kit was purchased from Cell Signaling (Cat. #7160). 100 μl sample in sample diluent (supplied in the kit) was added to each well and incubated overnight at 4° C. After 4× wash with 200 ul wash buffer (supplied in the kit), 100 ul/well detection antibody was added and incubated for 1 hour at 37° C. After 4× wash, 100 μl of HRP-linked secondary antibody (supplied in the kit) was added and incubated for 30 minutes at 37° C. After a final wash, 100 μl of TMB substrate was added to each well and incubated for 10 minutes at 37° C. The reaction was stopped by adding 100 μl/well stop solution. Record the values of each well using microplate reader at 450 nm and 650 nm. The optical density was determined by the subtraction of the reading at 650 nm from the reading s at 450 nm.
# (§1) Male C57BL/6 mice aged of two months were administrated orally with 4′-DMA-7,8-DHF derivatives at a single dose of 1 mg/kg for 4 h. The control mice were injected with saline. The mice were sacrificed and brains were homogenated and ultracentrafuged. The supernatant (40 μg) was employed for SDS-PAGE and immunoblotting analysis with indicated antibodies, respectively. Male C57BL/6 mice aged of two months were administrated orally with compound (i) or (m) at the dose of 5 mg/kg/day each and compound o or p at the dose of 2.5 mg/kg/day each for 21 days. BrdU (100 mg/kg) was i. p. injected two hours before the TrkB agonist treated animals were sacrificed and the hippocampal section lysates were analyzed by immunoblotting with p-TrkB and total TrkB antibodies, p-AKT ELISA.
# [6] = Reactive metabolic screening assay; assay type: in vitro ADME; conditions: liver microsomal lysates
# Text: (§2) To explore these compounds' in vitro ADMET profiles, we conducted numerous in vitro assays.
# [7] = Human liver microsomal stability assay; assay type: in vitro ADME; conditions: human liver microsomes, 1 h incubation
# Text: as §2
# [8] = biological target: T1, TrkB (Mus musculus, UniProt P15209); assay: TrkB phosphorylation in mouse brain after oral administration (immunoblotting, immunohistochemistry); assay type: in vivo
# T1 construct: from tissue; host or cells: mouse brain (hippocampus, cortex), C57BL/6
# Protocol: One mg/kg of various indicated compounds were orally administrated into C57 BL/6J mice and TrkB phosphorylation and its downstream signaling cascades including Akt and MAPK in the hippocampus of mouse brain were analyzed by immunoblotting at 4 h. […] The downstream p-Akt and p-MAPK activity coupled to the TrkB activation patterns.
# Time course assay with 4′-dimethylamino-7,8-imidazole flavone. One mg/kg of compound (i) and compound (m) were orally administrated into C57 BL/6J mice and TrkB phosphorylation and its downstream signaling cascades including Akt in mouse brain were analyzed by immunoblotting at various time points. TrkB activation by compound m peaked at 4 h, whereas the maximal TrkB activation by compound i in mouse brain occurred at 1-2 h. Arrows indicate the p-TrkB in mature glycosylated or unglycosylated forms (top panels). The downstream Akt activation pattern tightly correlated with the upstream TrkB activation.
# as §1
# Brain tissues were fixed in 4% paraformaldehyde overnight followed by paraffin embedding. Sections of 6 μm were cut. For immunohistochemical staining, brain sections were deparaffinized in xylene and rehydrated in graded alcohols. Endogenous peroxidase activity was blocked by 3% hydrogen peroxide for 5 min and all slides were boiled in 10 mM sodium citrate buffer (pH 6.0) for 10 min. Phosphorylated TrkB 816 and TrkB were detected using specific antibodies. Paraffin section were deparaffinized in xylene and rehydrated gradient ethanol solution. Samples were boiled in 10 mM sodium citrate buffer for 20 min for antigen retrieval purpose. Brain sections were incubated with anti-TrkB (BD Biosciences, San Jose, Calif.) 1:50, p-TrkB 1:300 dilution. Secondary antibody was applied using anti-rabbit-Alexa 594 (red), anti-mouse-fluorescein isothiocyanate (FITC) (green). DAPI (blue) was used for nuclear staining.
# [9] = test system: C57BL/6J mice; assay: Tail suspension test; assay type: in vivo, mouse; conditions: 2.5 mg/kg oral, 21 days
# Protocol: The drug-treated mice were subjected tail suspension assay. […] Data are presented as mean±SEM.
# One suspends mice by the tail to a horizontal ring stand bar 30 cm above the floor using adhesive tape for 6 minutes and videotaped. Latency to immobility and time spent immobile will be scored for each mouse. Following the test, mice will be returned to their home cage. Immobility scores were compared by unpaired t test.
# T1 sequence (P15209 32-821): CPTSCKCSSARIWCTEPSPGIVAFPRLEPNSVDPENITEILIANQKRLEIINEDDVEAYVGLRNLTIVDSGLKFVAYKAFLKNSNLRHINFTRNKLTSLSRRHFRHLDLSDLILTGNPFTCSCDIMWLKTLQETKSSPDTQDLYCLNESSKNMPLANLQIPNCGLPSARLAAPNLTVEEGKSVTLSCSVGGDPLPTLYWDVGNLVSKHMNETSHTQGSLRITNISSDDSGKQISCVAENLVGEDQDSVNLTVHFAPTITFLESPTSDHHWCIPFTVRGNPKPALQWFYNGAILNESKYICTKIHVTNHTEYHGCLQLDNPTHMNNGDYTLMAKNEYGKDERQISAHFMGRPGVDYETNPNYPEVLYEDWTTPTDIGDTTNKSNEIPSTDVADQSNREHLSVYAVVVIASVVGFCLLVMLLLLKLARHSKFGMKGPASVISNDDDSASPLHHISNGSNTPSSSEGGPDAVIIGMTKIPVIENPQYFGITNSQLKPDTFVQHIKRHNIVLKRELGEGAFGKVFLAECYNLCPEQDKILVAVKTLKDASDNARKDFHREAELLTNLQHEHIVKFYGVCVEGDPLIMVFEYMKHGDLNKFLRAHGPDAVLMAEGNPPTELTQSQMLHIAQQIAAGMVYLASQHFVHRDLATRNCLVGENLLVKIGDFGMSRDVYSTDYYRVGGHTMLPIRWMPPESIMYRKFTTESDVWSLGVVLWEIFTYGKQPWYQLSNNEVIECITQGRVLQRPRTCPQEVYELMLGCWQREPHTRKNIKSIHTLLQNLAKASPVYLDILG
# hERG, sequence (Q12809 whole entry): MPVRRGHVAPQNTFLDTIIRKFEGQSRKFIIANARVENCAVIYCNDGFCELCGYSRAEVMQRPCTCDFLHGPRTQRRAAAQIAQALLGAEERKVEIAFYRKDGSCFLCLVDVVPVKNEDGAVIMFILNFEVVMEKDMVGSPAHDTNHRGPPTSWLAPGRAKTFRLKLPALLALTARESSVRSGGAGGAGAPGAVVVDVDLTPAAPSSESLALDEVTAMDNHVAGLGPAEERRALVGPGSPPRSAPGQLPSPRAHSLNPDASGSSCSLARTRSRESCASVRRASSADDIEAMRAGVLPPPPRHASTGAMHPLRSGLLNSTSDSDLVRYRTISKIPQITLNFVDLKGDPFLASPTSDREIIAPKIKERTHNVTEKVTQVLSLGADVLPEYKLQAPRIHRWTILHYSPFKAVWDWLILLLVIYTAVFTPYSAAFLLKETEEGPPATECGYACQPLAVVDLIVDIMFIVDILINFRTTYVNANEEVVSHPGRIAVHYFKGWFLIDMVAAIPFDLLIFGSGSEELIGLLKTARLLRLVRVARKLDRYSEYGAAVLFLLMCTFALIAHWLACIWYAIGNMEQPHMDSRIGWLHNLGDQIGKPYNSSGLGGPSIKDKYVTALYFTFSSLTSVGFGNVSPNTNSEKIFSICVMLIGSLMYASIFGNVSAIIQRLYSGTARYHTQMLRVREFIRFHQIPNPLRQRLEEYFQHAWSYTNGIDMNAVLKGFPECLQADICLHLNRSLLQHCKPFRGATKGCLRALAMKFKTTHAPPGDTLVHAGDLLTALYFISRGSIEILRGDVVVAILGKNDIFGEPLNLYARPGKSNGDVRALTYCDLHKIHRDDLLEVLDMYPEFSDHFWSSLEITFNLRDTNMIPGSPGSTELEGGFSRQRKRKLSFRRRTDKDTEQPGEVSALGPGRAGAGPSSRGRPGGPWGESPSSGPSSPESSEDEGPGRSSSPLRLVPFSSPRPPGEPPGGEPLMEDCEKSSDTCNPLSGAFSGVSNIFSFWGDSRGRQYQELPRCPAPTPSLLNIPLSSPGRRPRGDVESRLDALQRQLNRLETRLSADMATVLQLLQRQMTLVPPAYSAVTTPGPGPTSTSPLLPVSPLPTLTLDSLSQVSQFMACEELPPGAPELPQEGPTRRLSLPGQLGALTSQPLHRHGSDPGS
smiles,measurement,setting,value
"Cc1nc2ccc3c(=O)cc(-c4ccc(N5CCCC5)cc4)oc3c2[nH]1 [compound o, 2-methyl-8-(4-(pyrrolidin-1-yl)phenyl)chromeno[7,8-d]imidazol-6(1H)-one]",half-life,"[1]; C57BL/6, mouse, 3 mg/kg",~1.72 h
same,oral bioavailability,"[1]; C57BL/6, mouse, po, 10 mg/kg",2%
same,AUC(0-t),"[1]; mouse, 3 mg/kg",~312 ng·h/mL
same,bioavailability,"[1]; mouse, po, 10 mg/kg",~2%
same,locomotor activity,[2],neither compound o nor p altered the motion activity
same,hERG inhibition,[3],suboptimal; also recorded: did not possess any concentration-dependent inhibition activity of hERG
same,cytotoxicity or genotoxicity (overall conclusion),[4],negligible cytotoxicity or genotoxicity
same,Akt activation (quantitative p-Akt ELISA),[5],notably activated Akt
same,reactive metabolite / adduct formation,[6],quite stable in vitro
same,remaining unchanged after incubation,[7],25.4%
same,TrkB activation in mouse brain,"[8]; 1 mg/kg oral, hippocampus, at 2 h",triggers TrkB activation in mouse brain
same,TrkB phosphorylation after chronic treatment (immunoblotting),"[8]; 2.5 mg/kg/day oral, 21 days",markedly activated TrkB receptor; also recorded: evidently elevated TrkB phosphorylation
same,"TrkB phosphorylation in hippocampus (immunohistochemistry, anti-p-TrkB 816)","[8]; 2.5 mg/kg/day oral, chronic",elevated TrkB phosphorylation in hippocampus
same,immobility in tail suspension test,[9],active in both FST and TST depression behavioral assays; also recorded: significantly reduced the immobility versus vehicle control
